One test has as its system HBV εRNA. Put plainly: εRNA/oligonucleotide hybridization inhibition assay with rRNA competitor. It counts as binding, Hepatitis B virus. The note with it: for IC50: radiolabeled εRNA, 60-fold excess rRNA competitor; for Specificity: ratio RRE+rRNA IC50/εRNA+rRNA IC50, max = inactive in RRE assay. In a few lines: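 Inhibition of hybridization between 25 nM [32P]-εRNA and 100 nM biotinylated complementary oligonucleotide (50 mM Tris-HCl pH 7.5, 200 mM KCl, 5 mM MgCl2, 60 min, 25 °C), hybrids captured by streptavidin filter and counted. Titrations 0.1-200 μM with 60-fold excess rRNA; specificity = RRE+rRNA IC50/εRNA+rRNA IC50.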

A further test deals with HIV derived RRE RNA. Put plainly: heterologous hybridization inhibition assay with RRE RNA. It is filed as binding. The note with it: radiolabeled RRE RNA, rRNA competitor.

This is an account of results in patent publication US6335339B1, “Triazine antiviral compounds” (Scriptgen Pharmaceuticals, Inc., priority 1998, dated 2002).

What is called IC50 is the midpoint of a concentration-inhibition curve.

With `COc1ccc(Nc2nc(NN=Cc3ccc(OC)cc3OC)nc(Nc3ccccc3)n2)cc1` [Compound 20], in the test with HBV εRNA, the IC50 is 11.7 µM and the Specificity entry is listed as “max”. Also, the “RRE + rRNA IC50 (μM)” value in the test on HIV derived RRE RNA was “inactive”.
In the same order, the values of `Cc1cccc(C(=O)Oc2ccc(C=NNc3nc(N4CCCCC4)nc(N4CCCCC4)n3)cc2)c1` [Compound 181] are 60 µM, “max” and “inactive”.
In the case of `C(=Cc1ccccc1)C=NNc1nc(Nc2ccccc2)nc(N2CCCC2)n1` [Compound 213], the IC50 is 15.6 µM in the test on HBV εRNA and 519 µM with HIV derived RRE RNA. In the test on HBV εRNA, the Specificity is reported as 33.3.
For the compound `CC(=NNc1nc(NCc2ccccc2)nc(Nc2ccccc2)n1)c1ccc([N+](=O)[O-])cc1` [Compound 182], in the test on HBV εRNA, the IC50 is 70.4 µM and the Specificity result is “max”. Moreover, in the test with HIV derived RRE RNA, the “RRE + rRNA IC50 (μM)” value is “inactive”.
For the compound `CCCCN(CCCC)c1nc(NN=Cc2ccc3c(c2)OCO3)nc(Nc2ccc([N+](=O)[O-])cc2)n1` [Compound 11], in the test on HBV εRNA, the IC50 is 15 µM and the Specificity entry is “max”. Moreover, the “RRE + rRNA IC50 (μM)” value in the test with HIV derived RRE RNA is “inactive”.
In the case of `O=C(CSc1nc(SCC(=O)Nc2ccccc2C(F)(F)F)nc(SCC(=O)Nc2ccccc2C(F)(F)F)n1)Nc1ccccc1C(F)(F)F` [Compound 212], in the test on HBV εRNA, the IC50 worked out at 23.1 µM and the Specificity result is reported as “max”. The “RRE + rRNA IC50 (μM)” value in the test on HIV derived RRE RNA is “inactive”.
On to `CN(C)c1nc(NCc2ccccc2)nc(NN=Cc2ccc(Cl)cc2Cl)n1` [Compound 224], for which, in the test with HBV εRNA, the IC50 is 60.1 µM and the Specificity entry is on record as “max”. Besides, the “RRE + rRNA IC50 (μM)” value with HIV derived RRE RNA is “inactive”.
